Measurements published in publication PMC5906549, “Cathelicidin-Derived Antimicrobial Peptides Inhibit Zika Virus Through Direct Inactivation and Interferon Pathway” (Frontiers in Immunology, 2018).
Peptide text beside a SMILES is read from it.

Experiments:
Assay type in all cases: cell-based, Zika virus
ZIKV strain MR766 [1] = experiment: Intracellular ZIKV RNA in infected human fetal astrocytes, peptide pre-treatment (real-time RT-PCR); details: for Reduction of ZIKV RNA levels: astrocytes, 10 µM, at 48 h; for Intracellular ZIKV RNA, % of the untreated ZIKV group / Dose dependence of intracellular ZIKV RNA decrease: human fetal astrocytes, 48 h; for Intracellular ZIKV RNA, % of the untreated ZIKV group: 2 h pre-treatment, ZIKV MOI 0.5, re-treated at 24 h, normalized to GAPDH, N = 3; for Dose dependence of intracellular ZIKV RNA decrease: pre-treatment 0.4 to 10 µM, ZIKV MOI 0.5
Method: (§1) Human fetal astrocytes were derived from a single-cell isolation process of fetal brain tissues as previously described ([25], [26]). Briefly, dissociated brain tissue was incubated with 0.25% trypsin for 30 min, followed by neutralization with 10% fetal bovine serum (FBS), and further dissociated by trituration. The single-cell suspension was cultured as adherent cells in DMEM/F12 (Thermo Fisher Scientific, Waltham, MA, USA), supplemented with 10% FBS, penicillin (50 units/mL), and streptomycin (50 µg/mL) (Thermo Fisher Scientific). […] Vero cells (ATCC, CCL-81), an African green monkey kidney cell line, were maintained in Dulbecco’s Modified Eagle Medium (DMEM) with 5% FBS. Experiments with ZIKV were performed exclusively inside a BioSafety Level 2 (laboratory). All procedures utilized in this study were approved by the Institutional Biosafety Committee (IBC 16-05-013BL2) and followed biosafety level II practices as shown in National Institutes of health (NIH) Guideline Appendix G-II-B. ZIKV strain MR766 (Uganda, 1947) was obtained from ZeptoMetrix Corp., Buffalo, NY, USA, and propagated in Vero cells. ZIKV infection of the Vero cells and fetal astrocytes was previously characterized ([27]) and all infections in the current studies were at the MOI of 0.5.
(§2) Total mRNA was isolated with TRIzol Reagent (Thermo Fisher Scientific) and RNeasy Mini Kit (QIAGEN Inc., Valencia, CA, USA) following the manufacturer’s recommendations. Two real-time RT-PCR methods were used for the current studies. First, SYBR Green-based RT-PCR assay was used to determine intracellular ZIKV RNA in Vero cells. For this assay, reverse transcription was performed using Verso cDNA synthesis Kit (Thermo Fisher Scientific) and 1 µg of total RNA in a 15-µL final volume. The RT-PCR analyses were performed using 7.5-µL SYBR Green PCR Master Mix (Thermo Fisher Scientific) with 0.5-µL cDNA, 1.5-µL H2O, 5.5-µL oligonucleotide primer pairs at 10 µM. […] GG-3. PCR program: 1, 50°C for 2 min; 2, 95°C for 2 min; 3, 95°C for 15 s; 4, specific annealing temperature for 15 s; 5, 72°C for 1 min. Steps 2–4 were repeated 40 times. All samples were amplified in triplicate for analysis. Relative ZIKV RNA levels were determined and standardized with a GAPDH internal control using comparative ΔΔCT method ([35]). Second, TaqMan-based RT-PCR assay was used to determine intracellular ZIKV RNA and other gene expressions in Figures 3–6 and extracellular ZIKV RNA in Figure 3. The TaqMan assay was performed in a StepOne^TM Real-Time PCR system (Thermo Fisher Scientific). Primers used for TaqMan real-time RT-PCR were all from the Thermo Fisher Scientific, which included ZIKV (forward sequence: 5-[…]-3, reverse sequence: 5- […]-3, and probe sequence: 5′-[…]-3), IFN-α2 (Hs00265051_s1), IFN-β1 (Hs01077958_s1), eukaryotic 18-s rRNA (Hs99999901_s1), β-actin (Hs99999903_m1), and GAPDH (Catalog number: 4310884E). Relative ZIKV mRNA levels were determined and standardized with a GAPDH or 18-s rRNA endogenous control using comparative ΔΔCT method ([35]). […] For ZIKV in supernatants, RNA was extracted from the supernatants through TRIzol™ LS Reagent (Thermo Fisher Scientific, 10296028) following the manufacturer’s manual. […] Quantitative genomic RNA from ZIKV (NR-1838DQ, ATCC) was used as a standard to calculate viral copies.

ZIKV strain MR766 [2] = experiment: Extracellular ZIKV RNA in supernatants of infected human fetal astrocytes (real-time RT-PCR); details: ZIKV MOI 0.5, 48 h, cell-free supernatants
Method: Total mRNA was isolated with TRIzol Reagent (Thermo Fisher Scientific) and RNeasy Mini Kit (QIAGEN Inc., Valencia, CA, USA) following the manufacturer’s recommendations. Two real-time RT-PCR methods were used for the current studies. First, SYBR Green-based RT-PCR assay was used to determine intracellular ZIKV RNA in Vero cells. For this assay, reverse transcription was performed using Verso cDNA synthesis Kit (Thermo Fisher Scientific) and 1 µg of total RNA in a 15-µL final volume. The RT-PCR analyses were performed using 7.5-µL SYBR Green PCR Master Mix (Thermo Fisher Scientific) with 0.5-µL cDNA, 1.5-µL H2O, 5.5-µL oligonucleotide primer pairs at 10 µM. […] GG-3. PCR program: 1, 50°C for 2 min; 2, 95°C for 2 min; 3, 95°C for 15 s; 4, specific annealing temperature for 15 s; 5, 72°C for 1 min. Steps 2–4 were repeated 40 times. All samples were amplified in triplicate for analysis. Relative ZIKV RNA levels were determined and standardized with a GAPDH internal control using comparative ΔΔCT method ([35]). Second, TaqMan-based RT-PCR assay was used to determine intracellular ZIKV RNA and other gene expressions in Figures 3–6 and extracellular ZIKV RNA in Figure 3. The TaqMan assay was performed in a StepOne^TM Real-Time PCR system (Thermo Fisher Scientific). Primers used for TaqMan real-time RT-PCR were all from the Thermo Fisher Scientific, which included ZIKV (forward sequence: 5-[…]-3, reverse sequence: 5- […]-3, and probe sequence: 5′-[…]-3), IFN-α2 (Hs00265051_s1), IFN-β1 (Hs01077958_s1), eukaryotic 18-s rRNA (Hs99999901_s1), β-actin (Hs99999903_m1), and GAPDH (Catalog number: 4310884E). Relative ZIKV mRNA levels were determined and standardized with a GAPDH or 18-s rRNA endogenous control using comparative ΔΔCT method ([35]). […] Quantitative genomic RNA from ZIKV (NR-1838DQ, ATCC) was used as a standard to calculate viral copies.
(A) Human fetal astrocytes were treated with doses of the selected peptides ranging from 1 to 50 µM. […] Cell viability was determined by a colorimetric MTS assay. […] Data were analyzed by nonlinear regression and assessed the EC50 for each of the antimicrobial peptides. […] At the experimental endpoint, intracellular ZIKV RNA (B) was determined through real-time RT-PCR in total cellular RNA. […] Extracellular ZIKV RNA [(C), in log scale] was determined through real-time RT-PCR using total RNA isolated from cell-free supernatants. ZIKV virion levels (in log scale) were determined by adding cell-free culture supernatants to Vero cells and overlaid with Agar gel in viral PFA (D). Viral plaques were manually counted and calculated as PFU/mL (E). * p < 0.05, ** p < 0.01, and *** p < 0.001, as compared with the ZIKV group without peptide treatment (ANOVA, N = 3).

ZIKV strain MR766 [3] = experiment: Viral attachment assay at 4°C in human fetal astrocytes; details: astrocytes pre-incubated at 4°C half an hour, peptide along with ZIKV MOI 0.5 for 2 h at 4°C; normalized to 18-s rRNA; N = 3
Method: Viral attachment assay was adapted from a previous publication ([36]) with modifications. Briefly, primary human fetal astrocytes were pre-incubated at 4°C for half an hour and then treated with AMPs along with ZIKV infection at the MOI of 0.5. After infection at 4°C for 2 h, cultures were washed with fresh medium for three times and RNA was isolated from whole cells. ZIKV RNA was determined through real-time RT-PCR. Data were normalized to 18-s rRNA and presented as fold change compared with the ZIKV group. One experimental group was subjected to trypsin digestion to remove any attached virions. This group served as a positive control for the viral attachment experiment.
(A) Primary human fetal astrocytes were pre-incubated at 4°C for half an hour and then treated with antimicrobial peptides along with ZIKV infection at the MOI of 0.5 for 2 h. Cultures were then washed with fresh medium for three times. […] Data were normalized to 18-s rRNA and presented as fold change compared with the ZIKV group. The trypsin digestion group readily removes any attached virions and thus serves as positive control. […] After infection for 2 h, cultures were washed with fresh medium for three times and RNA was isolated from whole cells. ZIKV RNA was determined through real-time RT-PCR.

ZIKV strain MR766 [4] = experiment: ZIKV virion levels in astrocyte supernatants, plaque-forming assay on Vero cells; details: human fetal astrocytes; peptide 0.4 to 10 µM pre-treatment; supernatants titrated on Vero cells
Method: (A) Human fetal astrocytes were treated with doses of the selected peptides ranging from 1 to 50 µM. After 24 h, the cultures were washed and treated with same doses of peptides in fresh medium for another 24 h. Cell viability was determined by a colorimetric MTS assay. Results shown are the averages ±SD of experiments performed in triplicate. Data were analyzed by nonlinear regression and assessed the EC50 for each of the antimicrobial peptides. (B–E) Astrocytes were treated with doses of antimicrobial peptides ranging from 0.4 to 10 µM for 2 h then infected with ZIKV at the MOI of 0.5. After 24 h, the cultures were washed and treated with same doses of antimicrobial peptides in fresh medium for another 24 h. At the experimental endpoint, intracellular ZIKV RNA (B) was determined through real-time RT-PCR in total cellular RNA. Data were normalized to GAPDH and presented as fold change (in log scale) compared with ZIKV group. Extracellular ZIKV RNA [(C), in log scale] was determined through real-time RT-PCR using total RNA isolated from cell-free supernatants. ZIKV virion levels (in log scale) were determined by adding cell-free culture supernatants to Vero cells and overlaid with Agar gel in viral PFA (D). Viral plaques were manually counted and calculated as PFU/mL (E). * p < 0.05, ** p < 0.01, and *** p < 0.001, as compared with the ZIKV group without peptide treatment (ANOVA, N = 3).

ZIKV strain MR766 [5] = experiment: ZIKV RNA in infected Vero cells, peptide pre-treatment (real-time RT-PCR); details: for ZIKV RNA compared with untreated controls: peptide 2 µM, 2 h before ZIKV MOI 0.5, re-treated at 24 h, 48-h post-infection, RT-PCR normalized to GAPDH, N = 3
Method: as §1, §2

| SMILES | Reduction of ZIKV RNA levels (ZIKV strain MR766 [1]) | Intracellular ZIKV RNA, % of the untreated ZIKV group (ZIKV strain MR766 [1]; peptide 2 µM) | Intracellular ZIKV RNA, % of the untreated ZIKV group (ZIKV strain MR766 [1]; peptide 10 µM) | Dose dependence of intracellular ZIKV RNA decrease (ZIKV strain MR766 [1]) | Extracellular ZIKV RNA in culture supernatants, reduced to % of untreated (ZIKV strain MR766 [2]; peptide 2 µM) | Extracellular ZIKV RNA in culture supernatants, reduced to % of untreated (ZIKV strain MR766 [2]; peptide 10 µM) | ZIKV RNA levels in astrocytes at 4°C (viral attachment) (ZIKV strain MR766 [3]) | ZIKV virions (PFU/mL) in supernatants (ZIKV strain MR766 [4]) | ZIKV RNA compared with untreated controls (ZIKV strain MR766 [5]) | Dose dependence of ZIKV RNA decrease (ZIKV strain MR766 [5]; peptide 0.4, 2 and 10 µM, ZIKV MOI 0.5, 48-h post-infection) |
| --- | --- | --- | --- | --- | --- | --- | --- | --- | --- | --- |
| CC[C@H](C)[C@H](NC(=O)[C@H](CCCCN)NC(=O)[C@H](CCCCN)NC(=O)[C@H](Cc1ccccc1)NC(=O)[C@H](CC(C)C)NC(=O)[C@H](CCCCN)NC(=O)[C@H](CCCCN)NC(=O)[C@H](Cc1ccccc1)NC(=O)[C@H](CCCCN)NC(=O)[C@H](CCCCN)NC(=O)[C@H](CCCNC(=N)N)NC(=O)[C@H](Cc1ccccc1)NC(=O)[C@H](CCCNC(=N)N)NC(=O)[C@H](CCCCN)NC(=O)[C@H](Cc1ccccc1)NC(=O)[C@H](CCCNC(=N)N)NC(=O)CN)C(=O)N[C@@H](CO)C(=O)O [BMAP-18] (H-GRFKRFRKKFKKLFKKIS-OH; N-terminus and C-terminus assumed) | > 95% | 15% | 4% | decreased intracellular ZIKV RNA in a dose-dependent manner | 5.6% | 1.3% | did not alter the ZIKV RNA levels | ZIKV virions were reduced | significantly decreased ZIKV RNA |  |
| CC[C@H](C)[C@H](NC(=O)[C@H](CCCNC(=N)N)NC(=O)[C@H](CCC(N)=O)NC(=O)[C@@H](NC(=O)[C@@H](NC(=O)[C@H](CCCNC(=N)N)NC(=O)[C@H](CCCCN)NC(=O)[C@H](Cc1ccccc1)NC(=O)CN)[C@@H](C)CC)C(C)C)C(=O)N[C@@H](CCCCN)C(=O)N[C@@H](CC(=O)O)C(=O)N[C@@H](Cc1ccccc1)C(=O)N[C@@H](CC(C)C)C(=O)N[C@@H](CCCNC(=N)N)C(=O)N[C@@H](CC(N)=O)C(=O)N[C@@H](CC(C)C)C(=O)N[C@H](C(N)=O)C(C)C [GF-17] (H-GFKRIVQRIKDFLRNLV-NH2; N-terminus and C-terminus assumed) | over 99% | 46% | 1% | decreased intracellular ZIKV RNA in a dose-dependent manner | 16.7% | 0.1% | did not alter the ZIKV RNA levels | ZIKV virions were reduced | significantly decreased ZIKV RNA |  |
| CC[C@H](C)[C@H](NC(=O)[C@H](CCCNC(=N)N)NC(=O)[C@H](CCC(N)=O)NC(=O)[C@@H](NC(=O)[C@@H](NC(=O)[C@@H](N)CCCNC(=N)N)[C@@H](C)CC)C(C)C)C(=O)N[C@@H](CCCCN)C(=O)N[C@@H](CC(=O)O)C(=O)N[C@@H](Cc1ccccc1)C(=O)N[C@@H](CC(C)C)C(=O)O [RI-10, reference compound] (H-RIVQRIKDFL-OH; N-terminus and C-terminus assumed) |  |  |  | but not RI-10, decreased intracellular ZIKV RNA |  |  | did not alter the ZIKV RNA levels |  |  | except RI-10 showed dose-dependent decrease of ZIKV RNA |
